Assay results from patent US20220338473A1, “USE OF BENZYL ALCOHOL AS A HERBICIDE” (INNOVI, priority 2019, published 2022).

What was measured:
Assay in all cases: Preventative activity (anti-germination), seeds on agar in Petri dish
Format in all cases: in vivo
Settings in all cases: 0.35 g sprayed (benzyl alcohol pure, 700 L/Ha; glyphosate diluted at 0.5%)
Barley seeds = system: Barley seeds
Experimental: (§1) The assays were carried out on seeds sown on a Petri dish with respectively a control mode, an assay with benzyl alcohol and an assay with glyphosate herbicide (Gallup® super 360, Barclay).
(§2) The application of the product is carried out with a trigger spray bottle which makes it possible to spray 0.35 g of product per spraying, as microdroplets.
(§3) Seeds are placed on an agar gel in Petri dishes. 16 barley seeds, 24 rapeseed seeds, 18 wheat seeds, 10 maize seeds, 10 soybean seeds are positioned for each test.
(§4) The seeds are sprinkled either with 0.35 g water (equivalent 700 L/Ha) including 0.35 g pure benzyl alcohol (PanReac AppliChem—ITW Reagents) (equivalent 700 L/Ha pure benzyl alcohol), or with 0.35 g water for the control, or with 0.35 g glyphosate diluted at 0.5% for the glyphosate test.
(§5) The plants are observed at 0 and 11 days. The percentage of germination is the percentage of germinated seeds evaluated after 11 days.

Maize seeds = system: Maize seeds
Experimental: as §1, §2, §3, §4, §5

Rapeseed seeds = system: Rapeseed seeds
Experimental: as §1, §2, §3, §4, §5

Soybean seeds = system: Soybean seeds
Experimental: as §1, §2, §3, §4, §5

Wheat seeds = system: Wheat seeds
Experimental: as §1, §2, §3, §4, §5

Dandelion seeds = system: Dandelion seeds

O=C(O)CNCP(=O)(O)O [Glyphosate, glyphosate, reference compound]
Percentage of germination at 11 days (Barley seeds): 100% | Percentage of germination at 11 days (Maize seeds): 100% | Percentage of germination at 11 days (Rapeseed seeds): 100% | Percentage of germination at 11 days (Soybean seeds): 100% | Percentage of germination at 11 days (Wheat seeds): 100% | Percentage of germination at 11 days (Dandelion seeds): 83%
